Reference: ChEMBL document CHEMBL5724696, “Autophagy assay results for EUbOPEN Chemogenomics Library” (2024)

Columns and labels:
Type in all cases: functional, Homo sapiens
[1] = test system: U2OS; experiment: (§1) Here: values are normalized to the negative (DMSO; defined as 0% autophagy induction) and positive (250nM Torin1; mTOR inhibitor; defined as maximal inducer of autophagy = 100%) control compounds and represented as % of autophagy induction. […] The impact of autophagy induction on cells is complex and depends on the affected target. As such, the magnitude of a phenotype may not be equally mirrored in the %-value of autophagy induction and vice versa. The dynamics of the induction may indicate the mode of activation: e.g. activation via phosphorylation or a signaling cascade may occur fast, while activation via transcription factors may take considerably longer. […] Of note, treatment concentrations may be sub-optimal for specific compounds, leading to false negative annotations.; details: Culturing Media DMEM, 1 % Penicillin/Streptomycin, 10% Fetal bovin serum Add-On: No, Screening Media Control DMEM, Screening Media Samples DMEM
[2] = test system: TERT-RPE1; experiment: as §1; details: Culturing Media DMEM/F12 (1:1), 1 % Penicillin/Streptomycin, 10% Fetal bovin serum Add-On: No, Screening Media Control DMEM/F12 (1:1), Screening Media Samples DMEM/F12 (1:1)
[3] = test system: U2OS; experiment: as §1; details: Culturing Media DMEM, 1 % Penicillin/Streptomycin, 10% Fetal bovin serum Add-On: No, Screening Media Control DMEM, Screening Media Samples DMEM; remark: listed apart in the source
[4] = Compound Concentration 0.5 uM, Timepoint 12 hours
[5] = Compound Concentration 0.5 uM, Timepoint 24 hours
[6] = Compound Concentration 0.5 uM, Timepoint 36 hours
[7] = Compound Concentration 0.5 uM, Timepoint 60 hours
[8] = Compound Concentration 2 uM, Timepoint 12 hours
[9] = Compound Concentration 2 uM, Timepoint 24 hours
[10] = Compound Concentration 2 uM, Timepoint 36 hours
[11] = Compound Concentration 2 uM, Timepoint 60 hours
[12] = Compound Concentration 10 uM, Timepoint 12 hours
[13] = Compound Concentration 10 uM, Timepoint 24 hours
[14] = Compound Concentration 10 uM, Timepoint 36 hours
[15] = Compound Concentration 10 uM, Timepoint 60 hours

Row | SMILES | autophagy induction [1, 4] [%] | autophagy induction [1, 5] [%] | autophagy induction [1, 6] [%] | autophagy induction [1, 7] [%] | autophagy induction [1, 8] [%] | autophagy induction [1, 9] [%] | autophagy induction [1, 10] [%] | autophagy induction [1, 11] [%] | autophagy induction [1, 12] [%] | autophagy induction [1, 13] [%] | autophagy induction [1, 14] [%] | autophagy induction [1, 15] [%] | autophagy induction [2, 4] [%] | autophagy induction [2, 5] [%] | autophagy induction [2, 6] [%] | autophagy induction [2, 7] [%] | autophagy induction [2, 8] [%] | autophagy induction [2, 9] [%] | autophagy induction [2, 10] [%] | autophagy induction [2, 11] [%] | other results
1 | COc1ccccc1CN[C@H]1C2CCN(CC2)[C@H]1C(c1ccccc1)c1ccccc1 [CP-96345] | -3.495 | -5.808 | -2.326 | -4.4745 | 5.091 | 1.613 | -0.5186 | 0.7913 | 26.1721 | 19.1804 | 19.6555 | 18.5295 | -7.147 | -11.4989 | -14.454 | -21.453 | -6.616 | -10.9647 | -14.8934 | -18.8514 | autophagy induction [2, 12]: 2.262%; autophagy induction [2, 13]: 3.387%; autophagy induction [2, 14]: 7.76%; autophagy induction [2, 15]: 2.279%; autophagy induction [3, 4]: 8.36%; autophagy induction [3, 5]: 2.83%; autophagy induction [3, 6]: 0.2431%; autophagy induction [3, 7]: 0.5109%; autophagy induction [3, 8]: -21.7864%; autophagy induction [3, 9]: -9.531%; autophagy induction [3, 10]: -7.223%; autophagy induction [3, 11]: -5.938%; autophagy induction [3, 12]: -2.456%; autophagy induction [3, 13]: -0.4585%; autophagy induction [3, 14]: -0.2201%; autophagy induction [3, 15]: -2.05%
2 | Cc1c(C2=CCN(C(=O)N(C)C(C)C)CC2)nnn1-c1cccnc1F | 23.3711 | 12.0378 | 26.6789 | 23.6658 | -5.386 | -5.642 | -9.747 | -4.534 | -2.977 | 0.8858 | -1.59 | 4.327 | -7.351 | -10.2554 | -12.7414 | -13.7381 | -4.799 | -6.124 | -8.583 | -9.595 | autophagy induction [2, 12]: -1.3221%; autophagy induction [2, 13]: -2.795%; autophagy induction [2, 14]: -0.6234%; autophagy induction [2, 15]: 3.817%; autophagy induction [3, 4]: 2.838%; autophagy induction [3, 5]: 0.05909%; autophagy induction [3, 6]: -0.5317%; autophagy induction [3, 7]: -0.9964%; autophagy induction [3, 8]: -1.633%; autophagy induction [3, 9]: -1.565%; autophagy induction [3, 10]: -0.7182%; autophagy induction [3, 11]: -1.565%; autophagy induction [3, 12]: 1.202%; autophagy induction [3, 13]: 0.8484%; autophagy induction [3, 14]: 0.458%; autophagy induction [3, 15]: -1.904%
3 | Cc1cc(C)cc(C(=O)N(C)[C@H](Cc2ccc(-c3ccccc3)cc2)C(=O)N[C@@H](Cc2c[nH]c3ccccc23)C(=O)O)c1 | 20.0451 | 13.0827 | 8.17 | 4.398 | 5.392 | 1.718 | -3.298 | -11.258 | 17.6344 | 16.7447 | 13.7232 | 11.2064 | -14.7352 | -10.2057 | -9.628 | -6.49 | -8.48 | -8.155 | -8.294 | -6.276 | autophagy induction [2, 12]: -5.809%; autophagy induction [2, 13]: -2.795%; autophagy induction [2, 14]: -2.603%; autophagy induction [2, 15]: -5.126%; autophagy induction [3, 4]: -3.328%; autophagy induction [3, 5]: -1.823%; autophagy induction [3, 6]: -2.116%; autophagy induction [3, 7]: -0.69%; autophagy induction [3, 8]: 4.263%; autophagy induction [3, 9]: 2.513%; autophagy induction [3, 10]: -0.01148%; autophagy induction [3, 11]: -0.5825%; autophagy induction [3, 12]: 3.263%; autophagy induction [3, 13]: 3.281%; autophagy induction [3, 14]: 1.189%; autophagy induction [3, 15]: 0.3614%
